Experimental data taken from PMC3201797 (Bioorganic & medicinal chemistry letters, 2010).

Legend:
Assay type in all cases: biochemical
[1] = molecular target: T1, prostate-specific membrane antigen (PSMA) (Homo sapiens, UniProt Q04609); assay: PSMA enzyme inhibition assay with purified PSMA
[2] = molecular target: T1, prostate-specific membrane antigen (PSMA); assay: PSMA enzyme inhibition assay
[3] = molecular target: T1, prostate-specific membrane antigen (PSMA); assay: PSMA enzyme inhibition assay with purified PSMA; remark: listed apart in the source

T1 sequence (Q04609 whole entry): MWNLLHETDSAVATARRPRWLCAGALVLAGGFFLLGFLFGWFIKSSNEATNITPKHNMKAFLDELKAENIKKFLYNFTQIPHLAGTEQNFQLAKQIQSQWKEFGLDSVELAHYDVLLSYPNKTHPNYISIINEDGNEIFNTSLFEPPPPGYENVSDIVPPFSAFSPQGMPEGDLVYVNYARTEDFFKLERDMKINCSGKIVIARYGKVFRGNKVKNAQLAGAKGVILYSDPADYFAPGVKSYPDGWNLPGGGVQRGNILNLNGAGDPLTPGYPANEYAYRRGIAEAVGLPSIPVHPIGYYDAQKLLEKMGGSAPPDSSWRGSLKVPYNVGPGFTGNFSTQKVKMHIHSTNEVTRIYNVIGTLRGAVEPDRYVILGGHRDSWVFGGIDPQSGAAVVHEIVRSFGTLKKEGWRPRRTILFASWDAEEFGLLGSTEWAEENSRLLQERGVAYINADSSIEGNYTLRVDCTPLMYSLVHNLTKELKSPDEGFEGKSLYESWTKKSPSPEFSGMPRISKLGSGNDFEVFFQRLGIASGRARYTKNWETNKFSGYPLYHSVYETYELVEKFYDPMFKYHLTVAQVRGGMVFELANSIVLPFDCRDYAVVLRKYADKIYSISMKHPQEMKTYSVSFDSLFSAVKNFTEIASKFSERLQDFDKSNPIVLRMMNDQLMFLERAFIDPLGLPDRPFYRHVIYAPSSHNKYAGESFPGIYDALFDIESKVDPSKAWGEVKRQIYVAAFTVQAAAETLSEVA

Question: CTT-54.2 was tested. Which IC50 [1] did it give?
Answer: Its IC50 is 144 nM.

Question: Which IC50 [2] does the source give for Cy5.5 free acid here?
Answer: Its IC50 is 6100 nM.

Question: With Cy5.5-CTT-54.2 as the substance, how does the IC50 [3] read?
Answer: Its IC50 is 0.55 nM.
